Assay results as given in patent US20240358663A1, “COMPOSITIONS AND METHODS FOR THE TREATMENT OF PULMONARY ARTERIAL HYPERTENSION” (The Regents of the University of Michigan, priority 2016, published 2024).
Entries after “also recorded” stand apart in the source; their conditions may differ.

Test system: CD39^+/+ and CD39^−/− mice exposed to hypoxia
Assay: Ectonucleotidase reconstitution and P2X1 receptor blocking in murine chronic hypoxia model of pulmonary hypertension
Format: in vivo, mouse
Conditions: for development of pulmonary hypertension (PH): continuous infusion during four weeks of hypoxia, CD39^+/+ and CD39^−/− mice; for pulmonary arterial pressures: continuous administration
From the text: Seven-week-old CD39^+/+ and CD39^−/− mice were maintained at 10% oxygen (normobaric) for four weeks using a purpose-built, normobaric hypoxia chamber with automated oxygen-regulating capability. Circulating air was scavenged using charcoal and soda lime (Sigma-Aldrich, St. Louis, MO). Temperature and humidity were monitored, and the latter maintained within normal limits using Dririte (Sigma-Aldrich, St. Louis, MO). Normoxic control mice were maintained in the same room at 21% oxygen, which was verified by a continuous oxygen sensor (BioSpherix, Lacona, NY). All animals were given free access to food and water, and were maintained on a 12-hour dark/light cycle.
Mice were anesthetized using 2% isoflurane. A tracheostomy was performed, and animals were ventilated using 21% or 10% oxygen administered thorough the ventilator circuit. Optimal ventilator settings were confirmed using arterial blood gas measurements. After a median sternotomy was performed, hemodynamic measurements were made using a 1.2F solid state pressure catheter (Scisense Transonic, London, ON) inserted through the right ventricular (RV) free wall into the RV cavity and advanced into the pulmonary artery (PA). Placement was verified using the pressure waveform. Data including the right ventricular systolic pressure (RVSP) and mean PA (mPA) pressures were collected and analyzed using LabScribe2 (iWorx, Dover, NH). Continuous EKG monitoring was performed using the MouseMonitor (Indus Instruments, Webster, TX).
Alzet osmotic pumps (DURECT, Cupertino, CA) were used to deliver either 15 units of
apyrase (A6410, Sigma-Aldrich, St. Louis, MO), 25 mM of NF279 (Tocris Bioscience/Bio-Techne, Minneapolis, MN) or sterile 0.9% sodium chloride over a four-week period at a rate of 0.11 μl/hr.
Based upon findings of increased intravascular ATP and ADP, significant up-regulation of the P2X1 receptor, and severe pulmonary hypertension in hypoxic CD39-mice, two sets of rescue experiments were designed aimed at reversing the PH phenotype. The first rescue experiment involved the reconstitution of intravascular ectonucleotidase activity. Soluble potato tuber apyrase has known ATPase and ADPase activity, and has been used in prior studies involving CD39^−/− mice (ref. 24, 44; incorporated by reference in their entireties). Sequence homology of this apyrase is similar to human and murine CD39 (ref. 19; incorporated by reference in its entirety). […] The second rescue experiment involved the continuous infusion of NF279 (8,8′-[Carbonylbis (imino-4,1-phenylenecarbonylimino-4,1-phenylenecarbonylimino)]bis-1,3,5-naphthalenetrisulfonic acid hexasodium salt):
a sensitive and specific P2X1 antagonist, during four weeks of hypoxia. […] Pulmonary Vessels from Patients with IPAH have Increased P2X1 Receptors

Row | Compound | development of pulmonary hypertension (PH) (FIG. 5c) | pulmonary arterial pressures (hypoxic CD39^−/− mice) | right ventricular systolic pressure (RVSP) (continuous subcutaneous administration during four weeks of hypoxia (10% oxygen), compared to control mice that received continuous saline infusions, FIG. 5c) | RVSP relative to levels found in normoxic CD39^+/+ mice (hypoxic CD39^−/− mice, four weeks of continuous administration, FIG. 5c)
1 | O=C(Nc1ccc(C(=O)Nc2ccc(C(=O)Nc3ccc(S(=O)(=O)[O-])c4cc(S(=O)(=O)[O-])cc(S(=O)(=O)[O-])c34)cc2)cc1)Nc1ccc(C(=O)Nc2ccc(C(=O)Nc3ccc(S(=O)(=O)[O-])c4cc(S(=O)(=O)[O-])cc(S(=O)(=O)[O-])c34)cc2)cc1.[Na+].[Na+].[Na+].[Na+].[Na+].[Na+] [NF279, 8,8′-[Carbonylbis (imino-4,1-phenylenecarbonylimino-4,1-phenylenecarbonylimino)]bis-1,3,5-naphthalenetrisulfonic acid hexasodium salt, reference compound] | prevented the development of PH in all groups; also recorded: protected both CD39^+/+ and CD39-4-mice from the development of hypoxic pulmonary hypertension | lowered pulmonary arterial pressures even further |  | 
2 | apyrase | provided partial protection against the development of pulmonary hypertension | decreased pulmonary arterial pressures in hypoxic CD39-mice to levels found in hypoxic CD39^+/+ controls | significantly decreased the RVSP | did not decrease the RVSP in hypoxic CD39^−/− mice to levels found in normoxic CD39^+/+ mice
